According to ChEMBL document CHEMBL5247629, “C-6 fluorinated casuarines as highly potent and selective amyloglucosidase inhibitors: Synthesis and structure-activity relationship study” (Eur J Med Chem, 2022):

Tests used:
[1] = species on record: Sus scrofa; assay: Inhibition of porcine kidney alpha/alpha-trehalase using p-nitrophenyl glycoside as substrate at 1000 uM by spectrometric method relative to control; type: tissue-based
[2] = system: Escherichia coli; assay: Inhibition of Escherichia coli beta-glucuronidase using p-nitrophenyl glycoside as substrate at 1000 uM by spectrometric method relative to control
[3] = molecular target: T1, Alpha-mannosidase (Canavalia ensiformis) (UniProt C0HJB3); assay: Inhibition of jack bean alpha-mannosidase using p-nitrophenyl glycoside as substrate at 1000 uM by spectrometric method relative to control
T1 sequence (whole entry): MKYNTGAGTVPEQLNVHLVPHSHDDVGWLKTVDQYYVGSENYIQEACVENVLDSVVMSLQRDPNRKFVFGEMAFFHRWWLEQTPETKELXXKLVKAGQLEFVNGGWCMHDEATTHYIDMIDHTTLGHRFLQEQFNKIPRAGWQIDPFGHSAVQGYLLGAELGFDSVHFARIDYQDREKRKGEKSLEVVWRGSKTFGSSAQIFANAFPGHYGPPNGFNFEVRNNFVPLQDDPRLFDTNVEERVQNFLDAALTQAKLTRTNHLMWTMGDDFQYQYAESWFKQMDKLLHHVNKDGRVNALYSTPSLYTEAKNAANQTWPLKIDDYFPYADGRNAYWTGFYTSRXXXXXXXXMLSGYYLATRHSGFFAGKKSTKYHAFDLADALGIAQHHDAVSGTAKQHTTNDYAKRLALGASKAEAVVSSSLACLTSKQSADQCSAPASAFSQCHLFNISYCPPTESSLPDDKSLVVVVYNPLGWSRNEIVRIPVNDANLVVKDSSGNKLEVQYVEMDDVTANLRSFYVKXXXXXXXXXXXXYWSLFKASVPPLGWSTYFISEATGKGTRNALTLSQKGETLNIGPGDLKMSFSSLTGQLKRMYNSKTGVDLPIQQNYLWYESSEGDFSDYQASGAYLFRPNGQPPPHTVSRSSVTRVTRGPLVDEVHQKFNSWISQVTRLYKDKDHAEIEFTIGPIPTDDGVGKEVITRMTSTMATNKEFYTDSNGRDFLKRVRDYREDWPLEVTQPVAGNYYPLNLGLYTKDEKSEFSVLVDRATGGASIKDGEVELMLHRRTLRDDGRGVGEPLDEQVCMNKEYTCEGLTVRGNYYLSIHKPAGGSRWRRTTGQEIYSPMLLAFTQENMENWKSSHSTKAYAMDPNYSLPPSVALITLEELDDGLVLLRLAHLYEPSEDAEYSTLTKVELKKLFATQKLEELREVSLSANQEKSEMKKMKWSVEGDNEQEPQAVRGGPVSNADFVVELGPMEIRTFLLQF

[4] = system: Prunus dulcis; assay: Inhibition of almond beta-glucosidase using p-nitrophenyl glycoside as substrate at 1000 uM by spectrometric method relative to control
[5] = species on record: Bos taurus; assay: Inhibition of bovine liver beta-glucuronidase using p-nitrophenyl glycoside as substrate at 1000 uM by spectrometric method relative to control; type: tissue-based
[6] = system: Helix pomatia; assay: Inhibition of snail beta-mannosidase using p-nitrophenyl glycoside as substrate at 1000 uM by spectrometric method relative to control
[7] = system: Penicillium decumbens; assay: Inhibition of Penicillium decumbens alpha-L-rhamnosidase using p-nitrophenyl glycoside as substrate at 1000 uM by spectrometric method relative to control
[8] = molecular target: Alpha-galactosidase (Coffea arabica) (UniProt Q42656); assay: Inhibition of coffee bean alpha-galactosidase using p-nitrophenyl glycoside as substrate at 1000 uM by spectrometric method relative to control
Alpha-galactosidase (Coffea arabica), sequence (Q42656 16-378 limits assumed): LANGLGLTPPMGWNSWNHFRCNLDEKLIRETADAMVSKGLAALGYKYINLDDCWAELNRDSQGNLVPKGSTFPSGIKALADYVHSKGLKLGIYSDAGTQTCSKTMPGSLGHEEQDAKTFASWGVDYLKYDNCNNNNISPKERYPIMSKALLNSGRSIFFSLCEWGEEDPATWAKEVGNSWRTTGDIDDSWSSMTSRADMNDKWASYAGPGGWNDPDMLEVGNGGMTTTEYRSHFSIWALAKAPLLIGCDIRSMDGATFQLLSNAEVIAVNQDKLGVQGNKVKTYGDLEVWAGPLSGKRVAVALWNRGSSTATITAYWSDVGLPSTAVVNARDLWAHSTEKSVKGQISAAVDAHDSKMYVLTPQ

[9] = species on record: Bos taurus; assay: Inhibition of bovine liver beta-glucosidase using p-nitrophenyl glycoside as substrate at 1000 uM by spectrometric method relative to control; type: tissue-based
[10] = molecular target: T2, Tissue alpha-L-fucosidase (Bos taurus) (UniProt Q2KIM0); assay: Inhibition of bovine kidney alpha-L-fucosidase using p-nitrophenyl glycoside as substrate at 1000 uM by spectrometric method relative to control; type: tissue-based
T2 sequence (whole entry): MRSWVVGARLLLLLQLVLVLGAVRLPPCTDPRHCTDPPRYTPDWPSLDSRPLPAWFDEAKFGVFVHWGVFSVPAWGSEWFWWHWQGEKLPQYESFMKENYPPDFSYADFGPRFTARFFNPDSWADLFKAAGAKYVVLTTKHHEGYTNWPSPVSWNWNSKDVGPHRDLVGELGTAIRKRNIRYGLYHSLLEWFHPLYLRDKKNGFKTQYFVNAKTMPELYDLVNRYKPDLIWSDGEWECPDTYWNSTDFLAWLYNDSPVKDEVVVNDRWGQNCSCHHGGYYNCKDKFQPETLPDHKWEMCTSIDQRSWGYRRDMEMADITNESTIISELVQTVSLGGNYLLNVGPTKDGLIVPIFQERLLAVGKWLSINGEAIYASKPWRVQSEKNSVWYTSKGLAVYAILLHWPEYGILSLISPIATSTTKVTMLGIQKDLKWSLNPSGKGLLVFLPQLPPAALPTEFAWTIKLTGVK

[11] = species on record: Bos taurus; assay: Inhibition of bovine liver beta-galactosidase using p-nitrophenyl glycoside as substrate at 1000 uM by spectrometric method relative to control; type: tissue-based
[12] = system: Oryza sativa; assay: Inhibition of rice alpha-glucosidase using p-nitrophenyl glycoside as substrate at 1000 uM by spectrometric method relative to control
[13] = Inhibition of Aspergillus niger amyloglucosidase using p-nitrophenyl glycoside as substrate by spectrometric method
[14] = molecular target: Alpha-glucosidase (Saccharomyces cerevisiae S288c) (UniProt P53341+P38158+P07265); assay: Inhibition of yeast alpha-glucosidase using p-nitrophenyl glycoside as substrate at 1000 uM by spectrometric method relative to control; type: protein assay
[15] = species on record: Rattus norvegicus; assay: Inhibition of rat intestinal maltase using maltose as substrate at 1000 uM at pH 6.8 by colorimetric method relative to control; type: tissue-based; conditions: Intestine
[16] = system: Penicillium decumbens; assay: Inhibition of Penicillium decumbens alpha-L-rhamnosidase at 1000 uM relative to control
[17] = molecular target: T2, Tissue alpha-L-fucosidase (Bos taurus); assay: Inhibition of bovine kidney alpha-L-fucosidase at 1000 uM relative to control; type: tissue-based
[18] = system: Prunus dulcis; assay: Inhibition of almond beta-glucosidase at 1000 uM relative to control
[19] = species on record: Bos taurus; assay: Inhibition of bovine liver beta-glucosidase at 1000 uM relative to control; type: tissue-based
[20] = Inhibition of porcine kidney alpha/alpha-trehalase; type: tissue-based, Sus scrofa
[21] = Inhibition of rice alpha-glucosidase; design: species or system Oryza sativa
[22] = species on record: Bos taurus; assay: Inhibition of bovine liver beta-galactosidase at 1000 uM relative to control
[23] = molecular target: Alpha-galactosidase (Coffea arabica) (UniProt Q42656); assay: Inhibition of coffee bean alpha-galactosidase at 1000 uM relative to control
[24] = Inhibition of Aspergillus niger amyloglucosidase
[25] = Inhibition of rat intestinal maltase; type: tissue-based, Intestine
[26] = species on record: Bos taurus; assay: Inhibition of bovine liver beta-glucuronidase at 1000 uM relative to control; type: tissue-based
[27] = system: Escherichia coli; assay: Inhibition of Escherichia coli beta-glucuronidase at 1000 uM relative to control
[28] = system: Helix pomatia; assay: Inhibition of snail beta-mannosidase at 1000 uM relative to control
[29] = molecular target: T1, Alpha-mannosidase (Canavalia ensiformis); assay: Inhibition of jack bean alpha-mannosidase at 1000 uM relative to control
[30] = molecular target: Alpha-glucosidase (Saccharomyces cerevisiae S288c, UniProt P53341+P38158+P07265); assay: Inhibition of yeast alpha-glucosidase; type: protein assay
[31] = Inhibition of rat intestinal maltase using maltose as substrate at pH 6.8 by colorimetric method; type: tissue-based, Intestine
[32] = Inhibition of rice alpha-glucosidase using p-nitrophenyl glycoside as substrate by spectrometric method; design: species or system Oryza sativa

SMILES | inhibition [1] [%] | inhibition [2] [%] | inhibition [3] [%] | inhibition [4] [%] | inhibition [5] [%] | inhibition [6] [%] | inhibition [7] [%] | inhibition [8] [%] | inhibition [9] [%] | inhibition [10] [%] | inhibition [11] [%] | IC50 [13] [µM] | pIC50 [13] | inhibition [14] [%] | IC50 [24] [µM] | also measured
OC[C@@H]1[C@@H](O)[C@H](O)[C@H]2CC(F)(F)CN12 | 3.2 | 0 | 0 | 11.4 | 0 | 0 | 3 | 1.6 | 12.5 | 0 | 22.4 | 27 | 4.569 | 3.6 | – | inhibition [12]: 15.4%; inhibition [15]: 7.9%
OC[C@@H]1[C@@H](O)[C@H](O)[C@H]2[C@H](O)[C@H](O)CN21 | – | – | – | – | – | – | – | – | – | – | – | – | 5.276 | – | 5.3 | inhibition [16]: 13.2%; inhibition [17]: 0%; inhibition [18]: 31.9%; inhibition [19]: 1.9%; IC50 [20]: 9.7 µM; IC50 [21]: 68 µM; inhibition [22]: 5.9%; inhibition [23]: 6%; IC50 [25]: 13 µM; inhibition [26]: 18.4%; inhibition [27]: 3.1%; inhibition [28]: 3%; inhibition [29]: 1.1%; IC50 [30]: 46 µM
OC[C@@H]1[C@@H](O)[C@H](O)[C@H]2[C@H](F)[C@H](O)CN21 | – | – | – | – | – | – | – | – | – | – | – | – | 5.347 | – | 4.5 | –
OC[C@@H]1[C@@H](O)[C@H](O)[C@H]2[C@@H](O)[C@@H](O)CN21 | – | – | – | – | – | – | – | – | – | – | – | – | 4.194 | – | 64 | –
OC[C@@H]1[C@@H](O)[C@H](O)[C@H]2[C@@H](F)[C@H](O)CN21 | – | – | – | – | – | – | – | – | – | – | – | – | 3.777 | – | 167 | –
OC[C@@H]1[C@@H](O)[C@H](O)[C@@H]2N1C[C@H](O)C2(F)F | – | – | – | – | – | – | – | – | – | – | – | – | 4.409 | – | 39 | –
OC[C@@H]1[C@@H](O)[C@H](O)[C@H]2C[C@H](F)CN12 | 23 | 0 | 0 | 36.8 | 14.8 | 0 | 9.9 | 2.9 | 25.5 | 0 | 25.8 | 2.2 | 5.658 | 0 | – | inhibition [12]: 10%; inhibition [15]: 7.9%
OC[C@@H]1[C@@H](O)[C@H](O)[C@H]2[C@H](F)[C@@H](O)CN21 | – | – | – | – | – | – | – | – | – | – | – | – | 5.276 | – | 5.3 | –
OC[C@@H]1[C@@H](O)[C@H](O)[C@H]2C[C@@H](F)CN12 | 42.3 | 1.2 | 2.3 | 17.7 | 21.9 | 4.3 | 4.9 | 6.7 | 24.3 | 0.9 | 29.9 | 633 | 3.199 | 30.1 | – | inhibition [12]: 17.7%; inhibition [15]: 30.9%
OC[C@@H]1[C@@H](O)[C@H](O)[C@H]2[C@@H](O)C(F)(F)CN21 | 9.2 | 2.6 | 0.8 | 3.5 | 10.1 | 0 | 0 | 0.2 | 12 | 6.4 | 6.2 | 246 | 3.609 | 5.6 | – | inhibition [12]: 7.7%; inhibition [15]: 28.4%
OC[C@@H]1[C@@H](O)[C@H](O)[C@H]2[C@@H](F)[C@@H](O)CN21 | – | – | – | – | – | – | – | – | – | – | – | – | 3.818 | – | 152 | –
OC[C@@H]1[C@@H](O)[C@H](O)[C@H]2[C@@H](F)CCN21 | – | – | – | – | – | – | – | – | – | – | – | – | 4.092 | – | 81 | –
OC[C@@H]1[C@@H](O)[C@H](O)[C@H]2[C@@H](O)[C@@H](F)CN21 | 30.4 | 7 | 3.3 | 13.6 | 13.3 | 0 | 1.7 | 0 | 35.9 | 14 | 38 | 248 | 3.606 | 18 | – | IC50 [31]: 927 µM; IC50 [32]: 350 µM
OC[C@@H]1[C@@H](O)[C@H](O)[C@H]2[C@@H](O)[C@H](F)CN21 | 30.4 | 2.9 | 0 | 8.5 | 23.1 | 0.8 | 0 | 0 | 32.3 | 0 | 17.6 | 11 | 4.959 | 0 | – | inhibition [12]: 28.4%; inhibition [15]: 41.7%
OC[C@@H]1[C@@H](O)[C@H](O)[C@@H]2N1C[C@@H](O)C2(F)F | – | – | – | – | – | – | – | – | – | – | – | – | 4.222 | – | 60 | –
OC[C@@H]1[C@@H](O)[C@H](O)[C@H]2[C@H](O)[C@@H](O)CN21 [CASUARINE] | – | – | – | – | – | – | – | – | – | – | – | – | 5.201 | – | 6.3 | inhibition [16]: 4.6%; inhibition [17]: 0%; inhibition [18]: 12%; inhibition [19]: 7.5%; IC50 [20]: 157 µM; IC50 [21]: 14 µM; inhibition [22]: 10.2%; inhibition [23]: 3.7%; IC50 [25]: 3.1 µM; inhibition [26]: 17.3%; inhibition [27]: 1.8%; inhibition [28]: 0%; inhibition [29]: 0%; IC50 [30]: 71 µM
OC[C@@H]1[C@@H](O)[C@H](O)[C@H]2[C@H](O)[C@@H](F)CN21 | 34.4 | 7.5 | 0 | 21.5 | 33.2 | 6.2 | 14.1 | 5 | 18.8 | 14.6 | 36.7 | 35 | 4.456 | 41.9 | – | IC50 [31]: 313 µM; IC50 [32]: 771 µM
